# Experimental data: patent US8691808B2, “Antiviral compounds and their methods of use” (Influmedix, Inc., priority 2011, dated 2014)
# Structures can show the parent of a compound that is named as a salt.
# Target: T1, A/M2 protein (IonGate S31) (Influenza A virus, UniProt P0DOF5)
# T1 construct: expressed in transfected cells; host or cells: CHO cell membranes
# Test: Cell-free electrophysiology of M2 proton channels on solid supported membranes (SSM, IonGate SURFE2R)
# Type: biochemical
# Conditions: 25 μM compound, activation by pH jump 7.0 to 6.0, % inhibition=100×(1−I/Io), hydrochloride, 25 µM
# T1 sequence (P0DOF5 whole entry): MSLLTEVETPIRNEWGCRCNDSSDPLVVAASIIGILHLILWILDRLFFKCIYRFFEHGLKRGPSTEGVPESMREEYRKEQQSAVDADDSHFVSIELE
row,SMILES,IonGate S31 (% Inhibition Range at 25 μM)
1,"NC12CC3CC(CC(C(F)F)C(C3)C1)C2 (stereo not drawn) [Example 11, endo-4-(difluoromethyl)tricyclo[4.3.1.1^3,8]undecan-1-amine hydrochloride]",A (51-95% (A))
2,"NC12CC3CC(CC(C(F)F)C(C3)C1)C2 (stereo not drawn) [Example 10, exo-4-(difluoromethyl)tricyclo[4.3.1.1^3,8]undecan-1-amine hydrochloride]",B (11-50% (B))

# Same assay, conditions: 25 μM compound, activation by pH jump 7.0 to 6.0, % inhibition=100×(1−I/Io), read-out: IonGate S31 (% Inhibition Range at 25 μM)
row,SMILES,inhibition at 25 µM
1,"NC12CC3CC(=NO)C(CC(C3)C1)C2 (centres unmarked) [Example 12, 1-aminotricyclo[4.3.1.1^3,8]undecan-4-one oxime hydrochloride]",1 to 10%
2,"NC12CC3COC(CC(C3)C1)C2 (centres unmarked) [Example 16, 4-oxatricyclo[4.3.1.1^3,8]undecan-1-amine hydrochloride]",11 to 50%
3,"NC12CC3CC(CC(C1)C(O)C3)C2 (stereo not drawn) [Example 1, exo-1-aminotricyclo[4.3.1.1^3,8]undecan-4-ol hydrochloride]",11 to 50%
4,"NC12CC3CC(C1)OC(=O)C(C3)C2 (centres unmarked) [Example 13, 1-amino-4-oxatricyclo[4.3.1.1^3,8]undecan-5-one hydrochloride]",1 to 10%
5,"NC12CC3CNC(CC(C3)C1)C2 (centres unmarked) [Example 15, 4-azatricyclo[4.3.1.1^3,8]undecan-1-amine dihydrochloride]",11 to 50%
6,"NC12CC3CC(CC(C1)C(I)C3)C2 (centres unmarked) [Example 5, 4-iodotricyclo[4.3.1.1^3,8]undecan-1-amine hydrochloride]",11 to 50%
7,"NC12CC3CC(CC(C1)C(F)C3)C2 (stereo not drawn) [Example 3, endo-4-fluorotricyclo[4.3.1.1^3,8]undecan-1-amine hydrochloride]",51 to 95%
8,"N#CC1CC2CC3CC1CC(N)(C2)C3 (stereo not drawn) [Example 8, exo-1-aminotricyclo[4.3.1.1^3,8]undecane-4-carbonitrile hydrochloride]",51 to 95%
9,"NC12CC3CC(C1)NC(=O)C(C3)C2 (centres unmarked) [Example 14, 1-amino-4-azatricyclo[4.3.1.1^3,8]undecan-5-one hydrochloride]",1 to 10%
